# Reference: PubChem BioAssay (NCI)
#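 Growth conditions: 96-well plates. Treatment: test compound, 48 hours, 5 concentrations. Analysis: linear interpolation between bracketing concentrations; unreached endpoints set to highest concentration. TGI is the concentration that stops growth completely.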
# Columns and labels:
# Assay in all cases: NCI-60 cell line screen, 48 h
# [1] = test system: RXF 393 renal
# [2] = test system: CAKI-1 renal
# [3] = test system: SNB-19 CNS
# [4] = test system: MOLT-4 leukemia
# [5] = test system: UACC-257 melanoma
# [6] = test system: RPMI-8226 leukemia
# [7] = test system: LOX IMVI melanoma
# [8] = test system: SF-295 CNS
# [9] = test system: SK-OV-3 ovarian
# [10] = test system: IGROV1 ovarian
# [11] = test system: NCI-H460 lung
# [12] = test system: M14 melanoma
# [13] = test system: NCI-H226 lung
# [14] = test system: NCI-H23 lung
# [15] = test system: TK-10 renal
# [16] = test system: SK-MEL-28 melanoma
# [17] = test system: 786-0 renal
# [18] = test system: A498 renal
# [19] = test system: DU-145 prostate
# [20] = test system: HCC-2998 colon
# [21] = test system: SW-620 colon
# [22] = test system: SNB-75 CNS
# [23] = test system: MDA-N
# [24] = test system: SN12C renal
# [25] = test system: SK-MEL-2 melanoma
# [26] = test system: NCI/ADR-RES ovarian
# [27] = test system: EKVX NSCLC
# [28] = test system: SF-268 CNS
# [29] = test system: OVCAR-8 ovarian
# [30] = test system: OVCAR-5 ovarian
# [31] = test system: U251 CNS
# [32] = test system: UACC-62 melanoma
# [33] = test system: KM12 colon
# [34] = test system: OVCAR-3 ovarian
# [35] = test system: HCT-116 colon
# [36] = test system: HOP-62 NSCLC
# [37] = test system: MDA-MB-231 breast
# [38] = test system: T-47D breast
# [39] = test system: K-562 leukemia
# [40] = test system: UO-31 renal
# [41] = test system: MCF7 breast
# [42] = test system: ACHN renal
# [43] = test system: COLO 205 colon
# [44] = test system: HS 578T breast
# [45] = test system: SR leukemia
# [46] = test system: HCT-15 colon
# [47] = test system: OVCAR-4 ovarian
# [48] = test system: MDA-MB-435
# [49] = test system: BT-549 breast
# [50] = test system: A549 NSCLC
# [51] = test system: PC-3 prostate
# [52] = test system: MALME-3M melanoma
# [53] = test system: SF-539 CNS
# [54] = test system: HT29 colon
# [55] = test system: CCRF-CEM leukemia
compound,measurement,setting,value
COc1c(=O)cc2cc[nH]c3ccn(C)c1c23,TGI,[1],> 100 µM
same,TGI,[2],> 100 µM
same,TGI,[3],> 100 µM
same,TGI,[4],> 100 µM
same,TGI,[5],> 100 µM
same,TGI,[6],> 100 µM
same,TGI,[7],> 100 µM
same,TGI,[8],> 100 µM
same,TGI,[9],> 100 µM
same,TGI,[10],> 100 µM
same,TGI,[11],> 100 µM
same,TGI,[12],> 100 µM
same,TGI,[13],> 100 µM
same,TGI,[14],> 100 µM
same,TGI,[15],> 100 µM
same,TGI,[16],> 100 µM
same,TGI,[17],> 100 µM
same,TGI,[18],> 100 µM
same,TGI,[19],> 100 µM
same,TGI,[20],> 100 µM
same,TGI,[21],> 100 µM
same,TGI,[22],> 100 µM
same,TGI,[23],> 100 µM
same,TGI,[24],> 100 µM
same,TGI,[25],> 100 µM
same,TGI,[26],> 100 µM
same,TGI,[27],> 100 µM
same,TGI,[28],> 100 µM
same,TGI,[29],> 100 µM
same,TGI,[30],> 100 µM
same,TGI,[31],> 100 µM
same,TGI,[32],> 100 µM
same,TGI,[33],> 100 µM
same,TGI,[34],> 100 µM
same,TGI,[35],> 100 µM
same,TGI,[36],> 100 µM
same,TGI,[37],> 100 µM
same,TGI,[38],> 100 µM
same,TGI,[39],> 100 µM
same,TGI,[40],> 100 µM
same,TGI,[41],> 100 µM
same,TGI,[42],> 100 µM
same,TGI,[43],> 100 µM
same,TGI,[44],> 100 µM
same,TGI,[45],> 100 µM
same,TGI,[46],> 100 µM
same,TGI,[47],> 100 µM
same,TGI,[48],> 100 µM
same,TGI,[49],> 100 µM
same,TGI,[50],> 100 µM
same,TGI,[51],> 100 µM
COc1ccc(/C=N/n2c(C)n[nH]c2=O)c(OC)c1,TGI,[2],> 100 µM
same,TGI,[3],> 100 µM
same,TGI,[4],> 100 µM
same,TGI,[5],> 100 µM
same,TGI,[6],> 100 µM
same,TGI,[8],> 100 µM
same,TGI,[52],> 100 µM
same,TGI,[9],> 100 µM
same,TGI,[11],> 100 µM
same,TGI,[53],> 100 µM
same,TGI,[12],> 100 µM
same,TGI,[13],> 100 µM
same,TGI,[14],> 100 µM
same,TGI,[16],> 100 µM
same,TGI,[17],> 100 µM
same,TGI,[18],> 100 µM
same,TGI,[19],> 100 µM
same,TGI,[20],> 100 µM
same,TGI,[21],> 100 µM
same,TGI,[22],> 100 µM
same,TGI,[54],> 100 µM
same,TGI,[23],> 100 µM
same,TGI,[24],> 100 µM
same,TGI,[25],> 100 µM
same,TGI,[26],> 100 µM
same,TGI,[27],> 100 µM
same,TGI,[28],> 100 µM
same,TGI,[29],> 100 µM
same,TGI,[30],> 100 µM
same,TGI,[31],> 100 µM
same,TGI,[32],> 100 µM
same,TGI,[33],> 100 µM
same,TGI,[34],> 100 µM
same,TGI,[35],> 100 µM
same,TGI,[36],> 100 µM
same,TGI,[37],> 100 µM
same,TGI,[38],> 100 µM
same,TGI,[39],> 100 µM
same,TGI,[40],> 100 µM
same,TGI,[41],> 100 µM
same,TGI,[42],> 100 µM
same,TGI,[43],> 100 µM
same,TGI,[44],9.01 µM
same,TGI,[46],> 100 µM
same,TGI,[55],> 100 µM
same,TGI,[47],> 100 µM
same,TGI,[48],> 100 µM
same,TGI,[49],> 100 µM
same,TGI,[50],> 100 µM
same,TGI,[51],> 100 µM
